Experimental findings from patent publication US4853407A, “Aminoethylcysteine derivatives” (Sanraku Incorporated, priority 1987, dated 1989) are described below.

A short description of series [1]: In vivo test on dipeptidase-inhibiting activity (recovery of co-administered antibiotic 88617 in urine). Also noted: species or system ddY mice. Conditions: mouse, sc; control: antibiotic 88617 alone, 20 mg/kg subcutaneous; urine collected 6 hours; average of five mice; read-out: Recovery ratio of antibiotic 88617 in urine. The procedure:
(§1) Five weeks aged ddY mice were grouped five mice for one group, and aqueous solutions containing 80 or 250 mg/ml concentration of the dipeptidase-inhibiting agent of this invention (adjusted with 1N NaOH to pH 7.5) were intravenously administered to the mice. A control group was administered with a same amount of pure water. 3 to 5 minutes after the administration, 0.25 ml of an antibiotic 88617 (M/100 PBS, pH 7.0 solutions) at 5 or 20 mg/kg-mouse were subcutaneously administered to the mice. Six hours after the administration of the antibiotic 88617, all the urines of the mice were collected and the concentrations of the antibiotic 88617 in all the collected urines were measured by disc-agar diffusion method in which Comamonas terrigena was used as test bacteria, and average values of five mice were determined.

Series [2] relates to dipeptidase. The description is as above. Also noted: species or system ddY mice. The note with it: 6 hours, average of five mice. The procedure: as §1
For series [3], the target named is T1, dipeptidase (Rattus norvegicus, UniProt P31430).
T1 construct: to obtain a partially purified sample of dipeptidase; from tissue; host or cells: rat kidney, microsome fraction, trypsin-treated, Triton X-100 solubilised, partially purified
T1 sequence (P31430 17-410): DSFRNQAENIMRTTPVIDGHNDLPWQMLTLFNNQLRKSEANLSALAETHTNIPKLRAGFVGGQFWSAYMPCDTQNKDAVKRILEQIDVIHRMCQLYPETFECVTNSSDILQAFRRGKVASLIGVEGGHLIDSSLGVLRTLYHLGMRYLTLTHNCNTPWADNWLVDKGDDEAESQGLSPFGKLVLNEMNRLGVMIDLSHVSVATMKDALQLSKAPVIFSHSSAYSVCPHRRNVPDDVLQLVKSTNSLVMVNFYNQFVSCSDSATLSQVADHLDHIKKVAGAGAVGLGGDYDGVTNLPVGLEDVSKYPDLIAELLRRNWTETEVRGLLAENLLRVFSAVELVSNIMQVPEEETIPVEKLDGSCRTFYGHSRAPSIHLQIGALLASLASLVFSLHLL
The experiment in a line: In vitro test on dipeptidase-inhibiting activity (antibiotic PS-5 as substrate, absorbance at 301 nm). Conditions: partially purified dipeptidase from rat kidney; substrate antibiotic PS-5, pH 8.0, 37° C., 5 minutes; read-out: ID50 (the source's name). Format: biochemical. The method, then:
Rats were sacrificed by decapitation to bleed, and about 12 g of fresh kidneys were collected. And a microsome fraction was obtained by subcellular fractionating method according to fractional centrifugation of Hogboom (Methods in Enzymology, vol. 1, pages 16-19, Academic Press, New York, 1955). This microsome fraction was treated with 400 μg/ml of trypsin at 0° C. for 16 hours, and then subjected to fractional ultracentrifugation at 10^5 G at 0° C. for 60 minutes.
The resultant precipitate was solubilized by 20 ml of Tris-HCl buffer (20 mM, pH 7.6) containing a surfactant (0.4% Triton® X-100), and subjected to fractional ultracentrifugation at 10^5 G at 0° C. for 60 minutes. […]
The enzyme obtained above ([…]) was preincubated together with 30 μl of an inhibiting agent solution in a cuvette at 37° C. for 5 minutes. […] The reaction was carried out within a cuvette of HITACHI spectrophotometer equipped with a constant temperature device (37° C.), and decreases of absorbance at a wavelength of 301 nm for 5 minutes were determined by a recorder.
By the values obtained above and values from control containing no inhibiting agent, the percent inhibition and ID50 at a predetermined inhibition concentration were determined.

Consider `CN=C(CSC1=C(C(=O)O)N2C(=O)C(C(C)F)C2C1)N(C)C` (centres unmarked) [Antibiotic 88617, reference compound], for which the dose excreted at 6 h in series [1] stood at 27.5%.
For `O=C(NCCSC[C@H](NC(=O)c1ccccc1)C(=O)O)c1ccccc1` [Compound No. 1, N-benzoyl-S-(2-benzoylaminoethyl)-L-cysteine], the “Recovery ratio of antibiotic 88617 in urine when dipeptidase-inhibiting agent was co-administered” value is 38.0% in the series with dipeptidase [2] (inhibitor 50 mg/kg intravenous in combination with antibiotic 88617 20 mg/kg subcutaneous) and 57.2% in the series on dipeptidase [2] (inhibitor 250 mg/kg intravenous in combination with antibiotic 88617 20 mg/kg subcutaneous). Further, the IC50 at dipeptidase [3] was 210 µM.
`O=C(O)[C@H](CSCCN1C(=O)c2ccccc2C1=O)N1C(=O)c2ccccc2C1=O` [Compound No. 2, S-(2-phthalimidethyl)-N-phthaloyl-L-cysteine]: at dipeptidase [3], the IC50 amounted to 480 µM.
